Measurements as given in patent US9453226B2, “Protection of cells from Alu-RNA-induced degeneration and inhibitors for protecting cells” (UNIVERSITY OF KENTUCKY RESEARCH FOUNDATION, priority 2011, dated 2016).

Legend:
[1] = system: RPE; assay: pAlu-induced RPE degeneration in wild-type mice, inhibitors given intravitreously; type: in vivo; settings: WT mice, subretinal pAlu, inhibitor intravitreous, fundus photographs and ZO-1 flat mounts
Method: Subretinal injection and imaging. Subretinal injections (1 μL) were performed using a Pico-Injector (PLI-100, Harvard Apparatus). Plasmids were transfected in vivo using 10% Neuroporter (Genlantis). Fundus imaging was performed on a TRC-50 IX camera (Topcon) linked to a digital imaging system (Sony). RPE flat mounts were immunolabeled using antibodies against zonula occludens-1 (Invitrogen).
Retinal photographs of dilated mouse eyes were taken with a TRC-50 IX camera (Topcon) linked to a digital imaging system (Sony).
Human eyes fixed in 2-4% paraformaldehyde were prepared as eyecups, cryoprotected in 30% sucrose, embedded in optimal cutting temperature compound (Tissue-Tek OCT; Sakura Finetek), and cryosectioned into 10 μm sections. Depigmentation was achieved using 0.25% potassium permanganate and 0.1% oxalic acid. Immunohistochemical staining was performed with the rabbit antibody against NLRP3 (1:100, Sigma Aldrich) or rabbit antibody against Caspase-1 (prediluted, AbCam). Isotype IgG was substituted for the primary antibody to assess the specificity of the staining. Bound antibody was detected with biotin-conjugated secondary antibodies, followed by incubation with ABC reagent and visualized by Vector Blue (Vector Laboratories). Levamisole (Vector Laboratories) was used to block endogenous alkaline phosphatase activity. Slides were washed in PBS, counterstained with neutral red (Fisher Scientific), rinsed with deionized water, air dried, and then mounted in Vectamount (Vector Laboratories). Fluorescent labeling of human tissue was performed with the rabbit antibody against PYCARD (1:50, Clone N-15, Santa Cruz Biotechnology) Immunolabeling was visualized by fluorescently conjugated anti-rabbit secondary antibody (Invitrogen). Tissue autofluorescence was quenched by incubating the sections in 0.3% Sudan black (Fisher Scientific). Sections were mounted in Vectashield with DAPI (Vector Laboratories). Mouse RPE/choroid flat mounts were fixed with 4% paraformaldehyde or 100% methanol, stained with rabbit antibodies against human zonula occludens-1 (1:100, Invitrogen) and visualized with Alexa594 (Invitrogen). All images were obtained using the Leica SP-5 or Zeiss Axio Observer Z1 microscopes.
Subretinal injections (1 μL) in mice were performed using a Pico-Injector (PLI-100, Harvard Apparatus). In vivo transfection of plasmids coding for two different Alu sequences (pAlu) or empty control vector (pNull) (Bennett et al., 2008; Kaneko et al., 2011; Shaikh et al., 1997) was achieved using 10% Neuroporter (Genlantis). AAV1-BEST1-Cre (Alexander and Hauswirth, 2008) or AAV1-BEST1-GFP were injected at 1.0×10^11 pfu/mL and in vitro transcribed Alu RNA was injected at 0.3 mg/mL.
siRNAs formulated in siRNA buffer (20 mM KCL, 0.2 mM MgCl2 in HEPES buffer at pH 7.5; Dharmacon) or phosphate buffered saline (PBS; Sigma-Aldrich); the TLR4 antagonist Ultra Pure Rhodobacter sphaeroides LPS (LPS-RS, InvivoGen), a peptide inhibitor of MyD88 homodimerization IMG-2005 (IMGENEX), control inhibitor (IMGENEX), recombinant IL-18 (Medical & Biological Laboratories), neutralizing rat antibodies against mouse IL-1β (IMGENEX), neutralizing rat antibodies against mouse IL-18 (Medical & Biological Laboratories), isotype control IgGs (R&D Systems or eBioscience as appropriate), Caspase-1 inhibitor Z-WEHD-FMK (R&D Systems), Caspase control inhibitor Z-FA-FMK (R&D Systems), DPI (Enzo Life Sciences), Mito-TEMPO (Enzo Life Sciences), MitoQ and dTPP (both adsorbed to cyclodextrin and provided by M.P. Murphy, MRC Mitochondrial Biology Unit), and gp91ds-tat and scrambled gp91 ds-tat (both Anaspec), were dissolved in phosphate buffered saline (PBS; Sigma-Aldrich) or dimethyl sulfoxide (DMSO; Sigma-Aldrich), and injected into the vitreous humor in a total volume of 1 μL with a 33-gauge Exmire microsyringe (Ito Corporation). […] As a control, Luc siRNA-chol (17+2 nt) was used with identical dosages. […]

[2] = system: IRAK1/4 phosphorylation; assay: IRAK1/4 phosphorylation in human RPE cells (Western blot); type: cell-based; settings: human RPE cells; normalized to Vinculin
Method: Protein abundance was assessed by Western blot analysis using antibodies against Caspase-1 (1:500; Invitrogen), pIRAK1 (1:500; Thermo Scientific), pIRAK4 (1:500, Abbomax), PYCARD (1:200, Santa Cruz Biotechnology), NLRP3 (1:500, Enzo Life Sciences) and Vinculin (1:1,000; Sigma-Aldrich). Caspase-1 activity was visualized using Caspalux1 E1D2 (Oncolmmunin) according to manufacturer's instructions.
Tissues or cells were homogenized in lysis buffer (10 mM Tris base, pH 7.4, 150 mM NaCl, 1 mM EDTA, 1 mM EGTA, 1% Triton X-100, 0.5% NP-40, protease and phosphatase inhibitor cocktail (Roche)). Protein concentrations were determined using a Bradford assay kit (Bio-Rad) with bovine serum albumin as a standard. Proteins (40-100 μg) were run on NuPAGE Bis-Tris gels (Invitrogen) and transferred to Immun-Blot PVDF membranes (Bio-Rad). Cells were scraped in hot Laemmli buffer (62.5 mM Tris base, pH 6.8, 2% SDS, 5% 2-Mercaptoethanol, 10% Glycerol, 0.01% Bromophenol Blue). Samples were boiled and run on 4-20% NuPAGE Tris-Glycine gels (Invitrogen). The transferred membranes were blocked for 1 h at RT and incubated with antibodies against human Caspase-1 (1:500; Invitrogen), mouse Caspase 1 (1:500; MBL), NLRP3 (1:1000; Enzo Life Sciences), PYCARD (1:1000, RayBiotech), phospho-IRAK1 (S376) (1:500, Thermo Scientific), phospho-IRAK4 (T345) (1:500, AbboMax), DICER1 (1:2,000; Bethyl), MyD88 (1:1,000; Cell Signaling), and mouse IL-18 (1:200; MBL) at 4° C. overnight. Protein loading was assessed by immunoblotting using an anti-Vinculin antibody (1:1,000; Sigma-Aldrich). The secondary antibodies were used (1:5,000) for 1 h at RT. The signal was visualized by enhanced chemiluminescence (ECL plus) and captured by VisionWorksLS Image Acquisition and Analysis software (Version 6.7.2, UVP, LLC).

Substance | pAlu-induced RPE degeneration [1] | pAlu-induced RPE degeneration ([1]; listed as Caspase-1 peptide inhibitor) | Alu RNA-induced IRAK1/4 phosphorylation [2]
Z-WEHD-FMK | blocked | protects | reduced
DRQIKIWFQNRRMKWKKRDVLPGT [MyD88 inhibitory peptide] | inhibited | – | reduces
